Measured values published in patent US6803224B2, “Regulated expression of cloned genes using a cascade genetic circuit” (priority 2000, dated 2004).
Where two headings read alike, the source gives them in different places.

Legend:
xylS2/Pm = test: β-galactosidase induction, simple circuit xylS2/Pm::lacZ in chromosome (E. coli CC118FH26); format: cell-based; conditions: E. coli CC118FH26, 5 hours at 30° C.
Text: (§1) This example illustrates how the effector molecules NahR and XylS2 can synergistically amplify gene expression when integrated properly into a cascade genetic circuit.

nahR/Psal = format: cell-based, E. coli; conditions: for Induction ratio of β-galactosidase activity: nahR/Psal, E. coli CC118RSL9, 5 hours at 30° C.
Text: as §1

nahR/Psal::xylS2/Pm [1] = format: cell-based, E. coli
Text: as §1

[2] = tested on: nahR/Psal::xylS2/Pm::trp'::'lacZ; conditions: Salicylate 2 mM, 30° C., 5 hours, depending on the transconjugant
Pm::lacZ (pTSPm-lacZ) = conditions: CC118λpir pTSPm-lacZ, salicylate 2 mM, 30° C., 5 hours
[3] = tested on: xylS2/Pm::lacZ (pCNB2-lacZ); conditions: CC118λpir pCNB2-lacZ, salicylate 2 mM, 5 hours
[4] = tested on: nahR/Psal::lacZ (pCNB4-lacZ); conditions: CC118λpir pCNB4-lacZ, salicylate 2 mM, 5 hours
nahR/Psal::xylS2/Pm [5] = conditions: CC4S2PMT97, salicylate 2 mM, 30° C., 5 hours
Experimental: The pool of bacteria growing on streptomycin 25 mg/l and rifampicin 50 mg/l was used as recipient in a mating with donor strain E. coli S17-1(λpir) (pCNB4-S2). To select transconjugants, the mating product was plated onto LB plates with rifampicin, streptomycin and kanamycin (25 mg/l). […] Cultures from colonies of the transconjugant were grown overnight in LB medium (yeast extract 5 g/l, tryptone 10 g/l, 5 g/l NaCl) at 37° C. by shaking. Cultures were diluted 1:100 in fresh media without antibiotic selection and incubated for 2 hours at 37° C.

[6] = tested on: xylS2/Pm::nahR and Psal::trp'::'lacZ; conditions: E. coli 2NRSL7, salicylate 2 mM
[7] = tested on: nahR4/Psal::xylS/Pm::trp'::'lacZ

Structure (SMILES) | Induction ratio of β-galactosidase activity (xylS2/Pm) | Induction ratio of β-galactosidase activity (nahR/Psal) | other results
CC(=O)Oc1ccccc1C(=O)O [2-Acetyl salicylate] | 10 | 40 | 
COc1ccccc1C(=O)O [2-Metoxi-benzoate] | 10 | 33 | 
O=C(O)c1cc(Cl)cc(Cl)c1O [3,5-Dichloro-salicylate] | 1 | 18 | 
Cc1cccc(C(=O)O)c1 [3-Methyl-benzoate] | 63 | 11 | 
Cc1cccc(C(=O)O)c1O [3-Methyl-salicylate] | 46 | 17 | 
O=C(O)c1ccc(Cl)cc1O [4-Chloro-salicylate] | 1 | 33 | 
Cc1ccc(C(=O)O)c(O)c1 [4-Methyl-salicylate] | 7 | 21 | 
O=C(O)c1cc(Cl)ccc1O [5-Chloro-salicylate] | 3 | 32 | 
Cc1ccc(O)c(C(=O)O)c1 [5-Methyl-salicylate] | 19 | 30 | 
COc1ccc(O)c(C(=O)O)c1 [5-Metoxi-salicylate] | 46 | 3 | 
Nc1ccccc1C(=O)O [Antranilate] | 11 | 22 | 
O=C(O)c1ccccc1O [Salicylate] | 13 | 24 | induction ratio as part of maximal activity (nahR/Psal::xylS2/Pm [1]; 0.5 mM of salicylate): 90%; β-gal activity (nahR/Psal::xylS2/Pm [1]; CC4S2PMT32, salicylate 2 mM, 30° C., 5 hours): 30383 Miller Units; time at which accumulation of β-galactosidase reached maximum value (nahR/Psal::xylS2/Pm [1]; Salicylate 2 mM added at OD600=0.2): 5 h; β-galactosidase production, share of total protein (nahR/Psal; the simple system, SDS-PAGE and densitometry): less than 0.6%; gene expression capacity [2]: 150 to 400 times; β-galactosidase production when induced [2]: 25,000-50,000 MU; β-gal activity (Pm::lacZ (pTSPm-lacZ)): 1358 Miller Units; β-gal activity ([3]; 30° C.): 67002 Miller Units; % β-gal/total proteins ([3]; SDS-PAGE densitometry): 13%; β-gal activity ([4]; 30° C.): 17952 Miller Units; % β-gal/total proteins ([4]; SDS-PAGE densitometry): 3.9%; β-gal activity (nahR/Psal::xylS2/Pm [5]): 39143 Miller Units; capacity of the reverse-coupled system (induction) [6]: 24 fold; XylS accumulation (western blot) ([7]; P. putida cascade cultures induced with salicylate): Increased accumulation of XylS; β-galactosidase produced in the presence of salicylate relative to benzoate ([7]; P. putida cascade transconjugants, 2 mM): about 4 fold
